Consider 20 substances from patent US7205382B2, “Peptides, the production and use thereof for binding immunoglobulins” (Fresenius Medical Care Affina GmbH, priority 2000, dated 2007).

Holding throughout (format): binding
Parameters in all cases: key: No binding of immunoglobulin for the defined peptide variant, detection negative: 0; Binding of immunoglobulin for the defined peptide variant, detection positive: +

In experiment [1] the test system is serum albumin. Kind of experiment: Cellulose-immobilized 13-mer peptide variants incubated with serum albumin (negative control), anti-human IgG-AP detection. The conditions noted are these: blocking buffer without addition, 3 h room temperature. The essentials: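 Membrane-bound peptides, spaced by two β-alanines, are probed with 1 μg/ml IgG-Fc or 1:10,000 serum for 3 h at room temperature; blocking buffer alone acts as control. Detection uses anti-human IgG-AP (1.2 μg/ml) and NBT/BCIP.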

Experiment [2] relates to immunoglobulins in human plasma. Kind of experiment: Cellulose-immobilized 13-mer peptide variants incubated with human plasma, anti-human IgG-AP detection. The conditions noted are these: human plasma as sample, diluted 1:10,000 in blocking buffer, 3 h room temperature. The essentials: (§1)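 Read-out was colorimetric NBT/BCIP staining (developing buffer pH 9.5) after alkaline phosphatase-conjugated anti-human IgG at 1.2 μg/ml. Before this, the immobilized peptides had been incubated 3 h at room temperature with 1 μg/ml IgG-Fc, 1:10,000 diluted serum, or albumin-containing blocking buffer without addition.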

Experiment [3] deals with human IgG-Fc. Briefly: Cellulose-immobilized 13-mer peptide variants incubated with human IgG-Fc, anti-human IgG-AP detection. The conditions noted are these: IgG-Fc 1 μg/ml in blocking buffer, 3 h room temperature. The essentials: as §1

Bridge positions count the residues as written; N and C are the ends. Square brackets hold non-standard residues; d marks the D form. Ends that are not written are not given here. cellulose = not defined here; βAla = NCCC(=O)O

For the substance “04M: cellulose-bound 13-mer variant DCAMHLGELVWCT-(βA)(βA) (DCAMHLGELVWCT[βAla][βAla]; disulfide 2-12 (inferred); also: cellulose-bound)”, in experiment [1], the “Result for incubation with serum albumin (immunoglobulin binding detection)” value (“Result for incubation with serum albumin” for short) is 0. In addition, in experiment [2], the “Result for incubation with human plasma (immunoglobulin binding detection)” value (shortened to “Result for incubation with human plasma”) is recorded as “+”. Further, the “Result for incubation with human IgG-Fc (immunoglobulin binding detection)” value (shortened to “Result for incubation with human IgG-Fc”) in experiment [3] is “+”.

On to “08G: cellulose-bound 13-mer variant DCAWHLGGLVWCT-(βA)(βA) (DCAWHLGGLVWCT-{βAla-βAla-cellulose}; disulfide 2-12 (inferred); not fully specified (N-terminus); printed as DCAWHLGGLVWCT-(βA)(βA); reading uncertain)”, for which the “Result for incubation with serum albumin” value in experiment [1] is given as 0. In experiment [2], the “Result for incubation with human plasma” value was 0. In addition, the “Result for incubation with human IgG-Fc” value in experiment [3] is 0.

In the case of “07K: cellulose-bound 13-mer variant DCAWHLKELVWCT-(βA)(βA) (DCAWHLKELVWCT-{βAla-βAla-cellulose}; disulfide 2-12 (inferred); not fully specified (N-terminus); printed as DCAWHLKELVWCT-(βA)(βA); reading uncertain)”, the “Result for incubation with serum albumin” value in experiment [1] was found to be 0. Further, in experiment [2], the “Result for incubation with human plasma” value is given as 0. Also, the “Result for incubation with human IgG-Fc” value in experiment [3] worked out at 0.

Consider “10I: cellulose-bound 13-mer variant DCAWHLGELIWCT-(βA)(βA) (DCAWHLGELIWCT-{βAla-βAla-cellulose}; disulfide 2-12 (inferred); reading uncertain; also: printed as DCAWHLGELIWCT-(βA)(βA))”, for which the “Result for incubation with serum albumin” value in experiment [1] came out at 0. Besides, the “Result for incubation with human plasma” value in experiment [2] turned out to be 0. Moreover, the “Result for incubation with human IgG-Fc” value in experiment [3] is given as 0.

“04E: cellulose-bound 13-mer variant DCAEHLGELVWCT-(βA)(βA) (DCAEHLGELVWCT[βAla][βAla]; disulfide 2-12 (inferred); also: cellulose-bound)”: in experiment [1], the “Result for incubation with serum albumin” value is on record as 0. In addition, in experiment [2], the “Result for incubation with human plasma” value was “+”. The “Result for incubation with human IgG-Fc” value in experiment [3] is “+”.

Consider “11M: cellulose-bound 13-mer variant DCAWHLGELVMCT-(βA)(βA)”, for which the “Result for incubation with serum albumin” value in experiment [1] came to 0. Further, the “Result for incubation with human plasma” value in experiment [2] is listed as 0. Also, the “Result for incubation with human IgG-Fc” value in experiment [3] came to 0.

Turning to “01E: cellulose-bound 13-mer variant ECAWHLGELVWCT-(βA)(βA) (ECAWHLGELVWCT-{βAla-βAla-cellulose}; disulfide 2-12 (inferred); reading uncertain; also: printed as ECAWHLGELVWCT-(βA)(βA))”, in experiment [1], the “Result for incubation with serum albumin” value came to 0. Also, the “Result for incubation with human plasma” value in experiment [2] was “+”. Moreover, the “Result for incubation with human IgG-Fc” value in experiment [3] is “+”.

As to “09K: cellulose-bound 13-mer variant DCAWHLGEKVWCT-(βA)(βA) (DCAWHLGEKVWCT-{βAla-βAla-cellulose}; disulfide 2-12 (inferred); reading uncertain; also: printed as DCAWHLGEKVWCT-(βA)(βA))”, in experiment [1], the “Result for incubation with serum albumin” value is given as 0. The “Result for incubation with human plasma” value in experiment [2] was “+”. The “Result for incubation with human IgG-Fc” value in experiment [3] is “+”.

For the substance “10T: cellulose-bound 13-mer variant DCAWHLGELTWCT-(βA)(βA) (DCAWHLGELTWCT-{βAla-βAla-cellulose}; disulfide 2-12 (inferred); reading uncertain; also: printed as DCAWHLGELTWCT-(βA)(βA))”, in experiment [1], the “Result for incubation with serum albumin” value was found to be 0. Besides, the “Result for incubation with human plasma” value in experiment [2] is reported as 0. Besides, the “Result for incubation with human IgG-Fc” value in experiment [3] stood at 0.

“03F: cellulose-bound 13-mer variant DCFWHLGELVWCT-(βA)(βA) (DCFWHLGELVWCT-{βAla-βAla-cellulose}; disulfide 2-12 (inferred); reading uncertain; also: printed as DCFWHLGELVWCT-(βA)(βA))”: the “Result for incubation with serum albumin” value in experiment [1] stood at 0. Moreover, in experiment [2], the “Result for incubation with human plasma” value was found to be 0. For the same substance, the “Result for incubation with human IgG-Fc” value in experiment [3] was 0.

As for “09M: cellulose-bound 13-mer variant DCAWHLGEMVWCT-(βA)(βA) (DCAWHLGEMVWCT-{βAla-βAla-cellulose}; disulfide 2-12 (inferred); reading uncertain; also: printed as DCAWHLGEMVWCT-(βA)(βA))”, the “Result for incubation with serum albumin” value in experiment [1] is 0. Moreover, the “Result for incubation with human plasma” value in experiment [2] is recorded as 0. For the same substance, in experiment [3], the “Result for incubation with human IgG-Fc” value is listed as “+”.

Turning to “05C: cellulose-bound 13-mer variant DCAWCLGELVWCT-(βA)(βA) (not fully specified (N-terminus, C-terminus, bridges); printed as DCAWCLGELVWCT-(βA)(βA); cysteine pairing not given here; also: cellulose-bound)”, the “Result for incubation with serum albumin” value in experiment [1] is recorded as 0. Moreover, in experiment [2], the “Result for incubation with human plasma” value came to 0. In addition, the “Result for incubation with human IgG-Fc” value in experiment [3] came to 0.

As to “10P: cellulose-bound 13-mer variant DCAWHLGELPWCT-(βA)(βA) (DCAWHLGELPWCT-{βAla-βAla-cellulose}; disulfide 2-12 (inferred); reading uncertain; also: printed as DCAWHLGELPWCT-(βA)(βA))”, the “Result for incubation with serum albumin” value in experiment [1] is 0. The “Result for incubation with human plasma” value in experiment [2] was 0. Moreover, the “Result for incubation with human IgG-Fc” value in experiment [3] is reported as 0.

For “07I: cellulose-bound 13-mer variant DCAWHLIELVWCT-(βA)(βA) (DCAWHLIELVWCT-{βAla-βAla-cellulose}; disulfide 2-12 (inferred); not fully specified (N-terminus); printed as DCAWHLIELVWCT-(βA)(βA); reading uncertain)”, in experiment [1], the “Result for incubation with serum albumin” value was found to be 0. Also, in experiment [2], the “Result for incubation with human plasma” value is recorded as 0. For the same substance, the “Result for incubation with human IgG-Fc” value in experiment [3] was 0.

Take “07D: cellulose-bound 13-mer variant DCAWHLDELVWCT-(βA)(βA) (DCAWHLDELVWCT-{βAla-βAla-cellulose}; disulfide 2-12 (inferred); not fully specified (N-terminus); printed as DCAWHLDELVWCT-(βA)(βA); reading uncertain)”: the “Result for incubation with serum albumin” value in experiment [1] amounted to 0. For the same substance, the “Result for incubation with human plasma” value in experiment [2] is “+”. Further, in experiment [3], the “Result for incubation with human IgG-Fc” value was “+”.

As to “09I: cellulose-bound 13-mer variant DCAWHLGEIVWCT-(βA)(βA) (DCAWHLGEIVWCT-{βAla-βAla-cellulose}; disulfide 2-12 (inferred); reading uncertain; also: printed as DCAWHLGEIVWCT-(βA)(βA))”, the “Result for incubation with serum albumin” value in experiment [1] stood at 0. In experiment [2], the “Result for incubation with human plasma” value came to 0. Moreover, the “Result for incubation with human IgG-Fc” value in experiment [3] stood at 0.

Turning to “03V: cellulose-bound 13-mer variant DCVWHLGELVWCT-(βA)(βA) (DCVWHLGELVWCT-{βAla-βAla-cellulose}; disulfide 2-12 (inferred); reading uncertain; also: printed as DCVWHLGELVWCT-(βA)(βA))”, the “Result for incubation with serum albumin” value in experiment [1] is 0. In addition, the “Result for incubation with human plasma” value in experiment [2] was 0. In addition, the “Result for incubation with human IgG-Fc” value in experiment [3] is 0.

As for “07E: cellulose-bound 13-mer variant DCAWHLEELVWCT-(βA)(βA) (DCAWHLEELVWCT-{βAla-βAla-cellulose}; disulfide 2-12 (inferred); not fully specified (N-terminus); printed as DCAWHLEELVWCT-(βA)(βA); reading uncertain)”, in experiment [1], the “Result for incubation with serum albumin” value is listed as 0. The “Result for incubation with human plasma” value in experiment [2] is 0. For the same substance, in experiment [3], the “Result for incubation with human IgG-Fc” value amounted to 0.

“01G: cellulose-bound 13-mer variant GCAWHLGELVWCT-(βA)(βA) (GCAWHLGELVWCT-{βAla-βAla-cellulose}; disulfide 2-12 (inferred); reading uncertain; also: printed as GCAWHLGELVWCT-(βA)(βA))”: the “Result for incubation with serum albumin” value in experiment [1] came out at 0. Also, in experiment [2], the “Result for incubation with human plasma” value is “+”. In experiment [3], the “Result for incubation with human IgG-Fc” value is “+”.

With “11D: cellulose-bound 13-mer variant DCAWHLGELVDCT-(βA)(βA) (DCAWHLGELVDCT-{βAla-βAla-cellulose}; disulfide 2-12 (inferred); reading uncertain; also: printed as DCAWHLGELVDCT-(βA)(βA))”, the “Result for incubation with serum albumin” value in experiment [1] is on record as 0. For the same substance, in experiment [2], the “Result for incubation with human plasma” value was 0. The “Result for incubation with human IgG-Fc” value in experiment [3] is 0.
